Assay results taken from publication PMC5218480 (PLoS ONE, 2017).

Test system: MV-4-11 cells
Experiment: Gene expression microarray analysis (Affymetrix PrimeView) and GSEA
Assay type: cell-based, human
Set-up: RFU PODN (11730768_x_at) / Fold change /veh PODN (11730768_x_at) / RFU LINC00158 (11744669_a_at) / Fold change /veh LINC00158 (11744669_a_at) / RFU DUSP10 (11751237_a_at) / Fold change /veh DUSP10 (11751237_a_at) / RFU ID3 (11757404_x_at) / Fold change /veh ID3 (11757404_x_at) / RFU PLEKHG5 (11737974_s_at) / Fold change /veh PLEKHG5 (11737974_s_at) / RFU LRRC4B (11730491_at) / Fold change /veh LRRC4B (11730491_at) / RFU GIMAP4 (11747438_a_at) / Fold change /veh GIMAP4 (11747438_a_at) / RFU KRT8 (11758183_x_at) / Fold change /veh KRT8 (11758183_x_at) / RFU CNN1 (11734310_a_at) / Fold change /veh CNN1 (11734310_a_at) / RFU VPS37D (11726825_at) / Fold change /veh VPS37D (11726825_at) / RFU C10orf10 (11716522_x_at) / Fold change /veh C10orf10 (11716522_x_at) / RFU KIR2DL2 /// KIR2DL4 /// KIR2DL5A /// KIR2DL5B /// KIR2DS1 /// KIR2DS2 /// KIR2DS3 /// KIR2DS4 /// KIR3DL3 /// KIR3DL3 /// KIR3DS1 (11738374_at) / Fold change /veh KIR2DL2 /// KIR2DL4 /// KIR2DL5A /// KIR2DL5B /// KIR2DS1 /// KIR2DS2 /// KIR2DS3 /// KIR2DS4 /// KIR3DL3 /// KIR3DL3 /// KIR3DS1 (11738374_at) / RFU C1QL1 (11718748_at) / Fold change /veh C1QL1 (11718748_at) / RFU TMPRSS4 (11747572_a_at) / Fold change /veh TMPRSS4 (11747572_a_at) / RFU HAMP (11756126_x_at) / Fold change /veh HAMP (11756126_x_at) / RFU RNFT2 (11725882_a_at) / Fold change /veh RNFT2 (11725882_a_at) / RFU NR4A2 (11747474_a_at) / Fold change /veh NR4A2 (11747474_a_at) / RFU ABCC12 (11746883_a_at) / Fold change /veh ABCC12 (11746883_a_at) / RFU TMEM136 (11760407_x_at) / Fold change /veh TMEM136 (11760407_x_at) / RFU CLDN22 /// WWC2 (11732394_at) / Fold change /veh CLDN22 /// WWC2 (11732394_at) / RFU HLA-DPB1 (11760878_x_at) / Fold change /veh HLA-DPB1 (11760878_x_at) / RFU SPINT1 (11716480_a_at) / Fold change /veh SPINT1 (11716480_a_at) / RFU GAP43 (11754022_s_at) / Fold change /veh GAP43 (11754022_s_at) / RFU A4GNT (11735810_at) / Fold change /veh A4GNT (11735810_at) / RFU PRB3 (11715151_x_at) / Fold change /veh PRB3 (11715151_x_at) / RFU TUBB4B (11761932_at) / Fold change /veh TUBB4B (11761932_at) / RFU CAPN14 (11732068_a_at) / Fold change /veh CAPN14 (11732068_a_at) / RFU TMCC2 (11721928_a_at) / Fold change /veh TMCC2 (11721928_a_at) / RFU IRGQ (11745062_a_at) / Fold change /veh IRGQ (11745062_a_at) / RFU FAM174B (11720279_a_at) / Fold change /veh FAM174B (11720279_a_at) / RFU TMPRSS4 (11748680_a_at) / Fold change /veh TMPRSS4 (11748680_a_at) / RFU FAM212B (11763350_a_at) / Fold change /veh FAM212B (11763350_a_at) / RFU PLEKHG5 (11743358_a_at) / Fold change /veh PLEKHG5 (11743358_a_at) / RFU ZSCAN30 (11745921_a_at) / Fold change /veh ZSCAN30 (11745921_a_at) / RFU CMKLR1 (11741424_a_at) / Fold change /veh CMKLR1 (11741424_a_at) / RFU LOC101060620 /// MAPK8IP1 (11723275_at) / Fold change /veh LOC101060620 /// MAPK8IP1 (11723275_at) / RFU SPTSSB (11747773_x_at) / Fold change /veh SPTSSB (11747773_x_at) / RFU PRSS12 (11739890_at) / Fold change /veh PRSS12 (11739890_at) / RFU BIN1 (11741810_x_at) / Fold change /veh BIN1 (11741810_x_at) / RFU WNT11 (11732464_a_at) / Fold change /veh WNT11 (11732464_a_at) / RFU C10orf10 (11716521_a_at) / Fold change /veh C10orf10 (11716521_a_at) / RFU C5orf56 (11738089_at) / Fold change /veh C5orf56 (11738089_at) / RFU CYB561 (11721691_x_at) / Fold change /veh CYB561 (11721691_x_at) / RFU ANKRD19P (11752326_a_at) / Fold change /veh ANKRD19P (11752326_a_at) / RFU OR2T12 /// OR2T33 /// OR2T8 (11738714_s_at) / Fold change /veh OR2T12 /// OR2T33 /// OR2T8 (11738714_s_at) / RFU VCAN (11748164_a_at) / Fold change /veh VCAN (11748164_a_at) / RFU JSRP1 (11732532_at) / Fold change /veh JSRP1 (11732532_at) / RFU KRTAP10-11 (11738290_x_at) / Fold change /veh KRTAP10-11 (11738290_x_at) / RFU MYO3A (11730013_a_at) / Fold change /veh MYO3A (11730013_a_at) / RFU EBF3 (11725865_a_at) / Fold change /veh EBF3 (11725865_a_at) / RFU CAMK2N1 (11719241_x_at) / Fold change /veh CAMK2N1 (11719241_x_at) / RFU C5orf56 (11738088_a_at) / Fold change /veh C5orf56 (11738088_a_at) / RFU OLFML3 (11715873_a_at) / Fold change /veh OLFML3 (11715873_a_at) / RFU LOC100653217 /// NTM (11731650_a_at) / Fold change /veh LOC100653217 /// NTM (11731650_a_at) / RFU MAPK11 (11762145_a_at) / Fold change /veh MAPK11 (11762145_a_at) / RFU FIZ1 (11724087_x_at) / Fold change /veh FIZ1 (11724087_x_at) / RFU OASL (11726364_x_at) / Fold change /veh OASL (11726364_x_at) / RFU SOX15 (11748057_x_at) / Fold change /veh SOX15 (11748057_x_at) / RFU CD79A (11719716_a_at) / Fold change /veh CD79A (11719716_a_at) / RFU HIST1H1D (11736915_at) / Fold change /veh HIST1H1D (11736915_at) / RFU CASKIN2 (11723855_a_at) / Fold change /veh CASKIN2 (11723855_a_at) / RFU LOC730098 (11760151_x_at) / Fold change /veh LOC730098 (11760151_x_at) / RFU OR4N2 (11742367_at) / Fold change /veh OR4N2 (11742367_at) / RFU PRRT2 (11749266_a_at) / Fold change /veh PRRT2 (11749266_a_at) / RFU SNX32 (11753110_a_at) / Fold change /veh SNX32 (11753110_a_at) / RFU CDHR5 (11726645_a_at) / Fold change /veh CDHR5 (11726645_a_at) / RFU RCAN1 (11760418_a_at) / Fold change /veh RCAN1 (11760418_a_at) / RFU FAM167A (11723789_a_at) / Fold change /veh FAM167A (11723789_a_at) / RFU FAM26E (11764081_at) / Fold change /veh FAM26E (11764081_at) / RFU ISYNA1 (11749810_s_at) / Fold change /veh ISYNA1 (11749810_s_at) / RFU ACY1 (11761880_at) / Fold change /veh ACY1 (11761880_at) / RFU 11764098_at / Fold change /veh 11764098_at / RFU SAMD14 (11745864_x_at) / Fold change /veh SAMD14 (11745864_x_at) / RFU NPB (11741838_a_at) / Fold change /veh NPB (11741838_a_at) / RFU TMPRSS6 (11731388_a_at) / Fold change /veh TMPRSS6 (11731388_a_at) / RFU KRTAP10-2 (11738614_at) / Fold change /veh KRTAP10-2 (11738614_at) / RFU ARHGAP8 /// PRR5-ARHGAP8 (11727945_x_at) / Fold change /veh ARHGAP8 /// PRR5-ARHGAP8 (11727945_x_at) / RFU KRTAP5-7 /// NADSYN1 (11734609_at) / Fold change /veh KRTAP5-7 /// NADSYN1 (11734609_at) / RFU RASL12 (11751679_a_at) / Fold change /veh RASL12 (11751679_a_at) / RFU CDKN2B (11736163_a_at) / Fold change /veh CDKN2B (11736163_a_at) / RFU PRF1 (11729649_at) / Fold change /veh PRF1 (11729649_at) / RFU, ZNF638 /// ZNF638-IT1 / Fold change vs veh, ZNF638 /// ZNF638-IT1 / RFU, PANK3 / Fold change vs veh, PANK3 / RFU, SH3YL1 / Fold change vs veh, SH3YL1 / RFU, ZEB2 / Fold change vs veh, ZEB2 / RFU, NRIP1 / Fold change vs veh, NRIP1 / RFU, PTTG1IP / Fold change vs veh, PTTG1IP / RFU, CAPN2 / Fold change vs veh, CAPN2 / RFU, MED14 / Fold change vs veh, MED14 / RFU, SNORA58 / Fold change vs veh, SNORA58 / RFU, C1orf63 / Fold change vs veh, C1orf63 / RFU, LRRFIP1 / Fold change vs veh, LRRFIP1 / RFU, NDUFAF7 / Fold change vs veh, NDUFAF7 / RFU, SLC12A2 / Fold change vs veh, SLC12A2 / RFU, IBTK / Fold change vs veh, IBTK / RFU, ESF1 / Fold change vs veh, ESF1 / Fold change vs veh, TMEM50B / RFU, TAOK1 / Fold change vs veh, TAOK1 / RFU, ACBD3 / Fold change vs veh, ACBD3 / RFU, TMA16 / Fold change vs veh, TMA16 / RFU, RWDD3 / Fold change vs veh, RWDD3 / RFU, BCAT1 / Fold change vs veh, BCAT1 / RFU, EDEM3 / Fold change vs veh, EDEM3 / RFU, TMEM33 / Fold change vs veh, TMEM33 / RFU, WDR75 / Fold change vs veh, WDR75 / RFU, AHCTF1 / Fold change vs veh, AHCTF1 / RFU, TFRC / Fold change vs veh, TFRC / RFU, ZDHHC17 / Fold change vs veh, ZDHHC17 / RFU, NOM1 / Fold change vs veh, NOM1 / RFU, ARL8B / Fold change vs veh, ARL8B / RFU, ZBTB11 / Fold change vs veh, ZBTB11 / RFU, TAMM41 / Fold change vs veh, TAMM41 / RFU, KIAA1704 /// LOC100996395 / Fold change vs veh, KIAA1704 /// LOC100996395 / RFU, ING1 / Fold change vs veh, ING1 / RFU, TRMT61B / Fold change vs veh, TRMT61B / RFU, FUBP3 / Fold change vs veh, FUBP3 / RFU, TP53 / Fold change vs veh, TP53 / RFU, TNKS2 / Fold change vs veh, TNKS2 / RFU, ZFP14 / Fold change vs veh, ZFP14 / RFU, ACTR2 / Fold change vs veh, ACTR2 / RFU, PPP3R1 / Fold change vs veh, PPP3R1 / RFU, PIK3R1 / Fold change vs veh, PIK3R1 / RFU, HNRNPA1 / Fold change vs veh, HNRNPA1 / RFU, RNF170 / Fold change vs veh, RNF170 / RFU, ZNF28 / Fold change vs veh, ZNF28 / RFU, RNGTT / Fold change vs veh, RNGTT / RFU, OGT / Fold change vs veh, OGT / RFU, BRD1 / Fold change vs veh, BRD1 / RFU, MARS / Fold change vs veh, MARS / RFU, ZNF655 / Fold change vs veh, ZNF655 / RFU, FAHD1 / Fold change vs veh, FAHD1 / RFU, BDP1 / Fold change vs veh, BDP1 / RFU, LRRCC1 / Fold change vs veh, LRRCC1 / RFU, ARID1A / Fold change vs veh, ARID1A / RFU, ZNF146 / Fold change vs veh, ZNF146 / RFU, ZNF330 / Fold change vs veh, ZNF330 / RFU, GPN3 / Fold change vs veh, GPN3 / RFU, C9orf123 / Fold change vs veh, C9orf123 / RFU, N4BP2L2 / Fold change vs veh, N4BP2L2 / RFU, ARFIP1 / Fold change vs veh, ARFIP1 / RFU, FAM179B / Fold change vs veh, FAM179B / RFU, BCL10 / Fold change vs veh, BCL10 / RFU, UHRF1BP1L / Fold change vs veh, UHRF1BP1L / RFU, BET1 / Fold change vs veh, BET1 / RFU, CNOT2 / Fold change vs veh, CNOT2 / RFU, ZNF268 / Fold change vs veh, ZNF268 / Fold change vs veh, ZNF507 / RFU, DGCR2 / Fold change vs veh, DGCR2 / RFU, WDSUB1 / Fold change vs veh, WDSUB1 / Fold change vs veh, HSP90B1 /// MIR3652 / RFU, ADSS / Fold change vs veh, ADSS / RFU, GK / Fold change vs veh, GK / RFU, ZNF148 / Fold change vs veh, ZNF148 / RFU, TAF9 / Fold change vs veh, TAF9 / RFU, SLC1A5 / Fold change vs veh, SLC1A5 / RFU, SLMO2 / Fold change vs veh, SLMO2 / RFU, ABCC4 / Fold change vs veh, ABCC4 / RFU, LOC101060439 /// RAP1B / Fold change vs veh, LOC101060439 /// RAP1B / RFU, RFX7 / Fold change vs veh, RFX7 / RFU, GTPBP10 / Fold change vs veh, GTPBP10 / RFU, CNEP1R1 / Fold change vs veh, CNEP1R1 / RFU, BIVM-ERCC5 /// ERCC5 / Fold change vs veh, BIVM-ERCC5 /// ERCC5 / RFU, ILF3 / Fold change vs veh, ILF3 / RFU 11762660_at / Fold change /veh 11762660_at / RFU VCAN (11757783_s_at) / Fold change /veh VCAN (11757783_s_at) / RFU DDX43 (11728927_at) / Fold change /veh DDX43 (11728927_at) / RFU KRT8 (11758188_x_at) / Fold change /veh KRT8 (11758188_x_at) / RFU NKD1 (11759106_at) / Fold change /veh NKD1 (11759106_at) / RFU SRD5A1 (11742802_a_at) / Fold change /veh SRD5A1 (11742802_a_at) / RFU TPSAB1 /// TPSB2 (11721975_s_at) / Fold change /veh TPSAB1 /// TPSB2 (11721975_s_at) / RFU GSTM3 (11746129_a_at) / Fold change /veh GSTM3 (11746129_a_at) / RFU IL23R (11737362_x_at) / Fold change /veh IL23R (11737362_x_at) / RFU TMEM51 (11727254_a_at) / Fold change /veh TMEM51 (11727254_a_at) / RFU PIWIL2 (11732686_x_at) / Fold change /veh PIWIL2 (11732686_x_at) / RFU ORM1 (11744905_x_at) / Fold change /veh ORM1 (11744905_x_at) / RFU CCDC152 (11743942_at) / Fold change /veh CCDC152 (11743942_at) / RFU ECM1 (11717891_a_at) / Fold change /veh ECM1 (11717891_a_at) / RFU IL23R (11748794_a_at) / Fold change /veh IL23R (11748794_a_at) / RFU TNFAIP8L3 (11732012_x_at) / Fold change /veh TNFAIP8L3 (11732012_x_at) / RFU MBOAT4 (11741988_at) / Fold change /veh MBOAT4 (11741988_at) / RFU 11764193_at / Fold change /veh 11764193_at / RFU TMEM53 (11763286_at) / Fold change /veh TMEM53 (11763286_at) / RFU MAGEB2 (11727129_at) / Fold change /veh MAGEB2 (11727129_at) / RFU TMEM200A (11744735_a_at) / Fold change /veh TMEM200A (11744735_a_at) / RFU CCDC152 (11751479_a_at) / Fold change /veh CCDC152 (11751479_a_at) / RFU FAM211A (11726209_a_at) / Fold change /veh FAM211A (11726209_a_at) / RFU RGS16 (11746705_a_at) / Fold change /veh RGS16 (11746705_a_at) / RFU VCAN (11755009_s_at) / Fold change /veh VCAN (11755009_s_at) / RFU RHOB (11743442_s_at) / Fold change /veh RHOB (11743442_s_at) / RFU RGS16 (11720943_a_at) / Fold change /veh RGS16 (11720943_a_at) / RFU RGS16 (11720944_at) / Fold change /veh RGS16 (11720944_at) / RFU, VPS4B / Fold change vs veh, VPS4B / RFU, CREB1 / Fold change vs veh, CREB1 / RFU, DNAJC13 / Fold change vs veh, DNAJC13 / RFU, GNAQ / Fold change vs veh, GNAQ / RFU, CDK5R1 / Fold change vs veh, CDK5R1 / RFU, ZRANB3 / Fold change vs veh, ZRANB3 / RFU, CUL4A / Fold change vs veh, CUL4A / RFU, CCNY / Fold change vs veh, CCNY / RFU, UFL1 / Fold change vs veh, UFL1 / RFU, COG3 / Fold change vs veh, COG3 / RFU, DIAPH2 / Fold change vs veh, DIAPH2 / RFU, SKA2 / Fold change vs veh, SKA2 / RFU, AFF3 / Fold change vs veh, AFF3 / RFU, LMF1 / Fold change vs veh, LMF1 / RFU, IPO11 / Fold change vs veh, IPO11 / RFU, DFFB / Fold change vs veh, DFFB / RFU, FOXP1 / Fold change vs veh, FOXP1 / RFU, CARD8 / Fold change vs veh, CARD8 / RFU, STRN3 / Fold change vs veh, STRN3 / RFU, ADK / Fold change vs veh, ADK / RFU, RASSF2 / Fold change vs veh, RASSF2 / RFU, WIPF1 / Fold change vs veh, WIPF1 / RFU, LARP1B / Fold change vs veh, LARP1B / RFU, RASA1 / Fold change vs veh, RASA1 / RFU, RB1 / Fold change vs veh, RB1 / RFU, PPFIA1 / Fold change vs veh, PPFIA1 / RFU, MAT2A / Fold change vs veh, MAT2A / RFU, CCT5 / Fold change vs veh, CCT5 / RFU, WDR92 / Fold change vs veh, WDR92 / RFU, CUX1 / Fold change vs veh, CUX1 / RFU, TTC7A / Fold change vs veh, TTC7A / RFU, TMEM135 / Fold change vs veh, TMEM135 / RFU, DEPTOR / Fold change vs veh, DEPTOR / RFU, CPM / Fold change vs veh, CPM / RFU, DNAJB6 / Fold change vs veh, DNAJB6 / RFU, CACNA2D3 / Fold change vs veh, CACNA2D3 / RFU, DTX4 / Fold change vs veh, DTX4 / RFU, TFCP2 / Fold change vs veh, TFCP2 / RFU, GMCL1 /// GMCL1P1 / Fold change vs veh, GMCL1 /// GMCL1P1 / RFU, AEBP2 / Fold change vs veh, AEBP2 / RFU, SNHG1 /// SNORD22 /// SNORD25 /// SNORD26 /// SNORD27 /// SNORD28 /// SNORD29 /// SNORD31 / Fold change vs veh, SNHG1 /// SNORD22 /// SNORD25 /// SNORD26 /// SNORD27 /// SNORD28 /// SNORD29 /// SNORD31 / Fold change (Aza/veh), C12orf56 (ProbeSet 11735607_a_at) / Fold change (ACY-1035/veh), C12orf56 (ProbeSet 11735607_a_at) / Fold change (Aza/veh), FGFR1OP (ProbeSet 11751329_s_at) / Fold change (ACY-1035/veh), FGFR1OP (ProbeSet 11751329_s_at) / Fold change (Aza/veh), VPS36 (ProbeSet 11739960_a_at) / Fold change (ACY-1035/veh), VPS36 (ProbeSet 11739960_a_at) / RFU SYPL1 (11715823_x_at) / Fold change /veh SYPL1 (11715823_x_at) / RFU IGFBP7 (11715501_s_at) / Fold change /veh IGFBP7 (11715501_s_at) / RFU REEP3 (11722064_at) / Fold change /veh REEP3 (11722064_at) / RFU IGLL1 (11728026_x_at) / Fold change /veh IGLL1 (11728026_x_at): dose or concentration left out as unconfirmed
Settings: ProbeSet 11717702_a_at; LIST D

## Nc1ncn([C@@H]2O[C@H](CO)[C@@H](O)[C@H]2O)c(=O)n1 [azacitidine]
  Fold change vs veh, RB1: 0.73
